The values below come from patent US6723717B1, “Sulfur-containing thyroxane derivatives and their use as hair growth promotors” (The University of Texas Southwestern Medical Center, priority 1999, dated 2004).

For the data set, the system named is male Sprague Dawley rats. The data set is described as follows: Cardiotoxicity Assay (heart-to-body weight ratio). It counts as in vivo, rat. The following applies: 250 μg/kg subcutaneously once daily for 28 days, hearts weighed on day 30. From the text:
The cardiotoxicity assay measures the potential of a test compound to adversely affect the cardiovascular system. As thyroid hormone (T3) damages the cardiovascular system, the heart enlarges. See, e.g., Gomberg-Maitland et al., “Thyroid hormone and Cardiovascular Disease”, American Heart Journal, Vol. 135(2), pp. 187-196 (1998); Klein and Ojamaa, “Thyroid Hormone and the Cardiovascular System”, Current Opinion in Endocrinology and Diabetes, Vol. 4, pp.341-346 (1997); and Klemperer et al., “Thyroid Hormone Therapy and Cardiovascular Disease”, Progress in Cardiovascular Diseases, Vol. 37 (4), pp. 329-336 (1996). This increases the weight of the heart relative to whole body weight. The cardiotoxicity assay herein below is used to test compounds for potentially adverse cardiac effects by measuring their effect on the heart-to-body weight ratio.
Two groups each of six male Sprague Dawley rats (Harlan Sprague Dawley, Inc., Indianapolis, Ind.) (each weighing from approximately 220 grams to 235 grams) are utilized. The first group is a vehicle control group and the second group is a test compound group. The length of the assay is 30 days, with treatment of vehicle or test compound in vehicle daily for 28 of those days as described below.
Prior to initiation of the assay, each rat is allowed to acclimate to standard environmental conditions for 5 days. […]

The structures appear in SMILES notation.

On to `N[C@@H](Cc1cc(I)c(Oc2cc(I)c(O)c(I)c2)c(I)c1)C(=O)O` [Example T4, thyroxine], for which the “cardiac-sparing (index C = RT/RV, heart/body weight ratio of test group over vehicle group; C less than 1.3 = cardiac-sparing)” value is on record as “not cardiac-sparine”.
